Experiments:
[1] = test system: CQ resistant W2 strain of P. falciparum; experiment: In vitro antimalarial activity; format: cell-based, Plasmodium falciparum
[2] = test system: HCT116 (colon cancer cell line) cells; experiment: In vitro cytotoxicity

With O=C1C(=O)N(CC(CO)NCCNc2ccnc3cc(Cl)ccc23)c2ccccc21 (stereo not drawn) [Compound 11a, 1-{2-[2-(7-Chloro-quinolin-4-ylamino)-ethylamino]-3-hydroxy-propyl}-1H-indole-2,3-dione] the “antimalarial activity (in words)” value [1] was “better activity than chloroquine”.
For O=C1C(=O)N(CC(CO)NCCCNc2ccnc3cc(Cl)ccc23)c2ccc(Cl)cc21 (stereo not drawn) [Compound 11f, 5-Chloro-1-{2-[3-(7-Chloro-quinolin-4-ylamino)-propylamino]-3-hydroxy-propyl}-1H-indole-2,3-dione], the “cytotoxicity (in words)” value [2] was “devoid of any cytotoxicity”.
In the case of O=C1C(=O)N(CC(CO)NCCNc2ccnc3cc(Cl)ccc23)c2ccc(Cl)cc21 (stereo not drawn) [Compound 11b, 5-Chloro-1-{2-[2-(7-Chloro-quinolin-4-ylamino)-ethylamino]-3-hydroxy-propyl}-1H-indole-2,3-dione], the “cytotoxicity (in words)” value [2] is reported as “devoid of any cytotoxicity”.
